One experiment concerns the target T1, Reticulocyte LOX (Oryctolagus cuniculus, UniProt P12530).
T1 construct: purchased Biomol Inc. (Plymouth Meeting, Pa., USA)
T1 sequence (P12530 1-663): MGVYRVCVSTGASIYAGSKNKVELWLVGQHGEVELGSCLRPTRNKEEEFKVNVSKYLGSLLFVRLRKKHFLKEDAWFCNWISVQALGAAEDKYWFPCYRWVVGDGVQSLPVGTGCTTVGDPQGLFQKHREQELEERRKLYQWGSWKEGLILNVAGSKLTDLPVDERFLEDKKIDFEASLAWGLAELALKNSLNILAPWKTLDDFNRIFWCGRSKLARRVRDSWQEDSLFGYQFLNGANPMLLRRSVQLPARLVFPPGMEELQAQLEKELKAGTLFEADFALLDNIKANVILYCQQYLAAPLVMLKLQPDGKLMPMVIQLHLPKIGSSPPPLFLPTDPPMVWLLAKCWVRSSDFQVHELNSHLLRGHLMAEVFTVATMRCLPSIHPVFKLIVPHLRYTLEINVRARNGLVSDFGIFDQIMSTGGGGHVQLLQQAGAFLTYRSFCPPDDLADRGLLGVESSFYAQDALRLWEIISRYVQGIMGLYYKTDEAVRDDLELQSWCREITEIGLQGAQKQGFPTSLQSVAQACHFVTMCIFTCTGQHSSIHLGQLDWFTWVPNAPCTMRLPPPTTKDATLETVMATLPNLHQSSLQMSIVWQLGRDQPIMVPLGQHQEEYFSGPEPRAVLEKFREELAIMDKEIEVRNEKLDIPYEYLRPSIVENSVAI
The experiment is described as follows: Kinetics of oxygenation of linoleoylated substrates by reticulocyte LOX. Format: biochemical, Rabbit. As to conditions: reticulocyte LOX 8.2 units/ml, 50 mM phosphate buffer pH 7.4, 25° C.; for Km: substrate 3-100 μM. The source says:
(§1) Data were expressed as means ±S.D. of results from at least three independent experiments.

For experiment [1], the target named is T2, soybean lipoxygenase-1 (LOX-1) (Glycine max, UniProt P08170).
T2 construct: purchased Sigma-Aldrich Corp (St. Louis, Mo., USA) lipoxidase Type I-B
T2 sequence (P08170 1-839): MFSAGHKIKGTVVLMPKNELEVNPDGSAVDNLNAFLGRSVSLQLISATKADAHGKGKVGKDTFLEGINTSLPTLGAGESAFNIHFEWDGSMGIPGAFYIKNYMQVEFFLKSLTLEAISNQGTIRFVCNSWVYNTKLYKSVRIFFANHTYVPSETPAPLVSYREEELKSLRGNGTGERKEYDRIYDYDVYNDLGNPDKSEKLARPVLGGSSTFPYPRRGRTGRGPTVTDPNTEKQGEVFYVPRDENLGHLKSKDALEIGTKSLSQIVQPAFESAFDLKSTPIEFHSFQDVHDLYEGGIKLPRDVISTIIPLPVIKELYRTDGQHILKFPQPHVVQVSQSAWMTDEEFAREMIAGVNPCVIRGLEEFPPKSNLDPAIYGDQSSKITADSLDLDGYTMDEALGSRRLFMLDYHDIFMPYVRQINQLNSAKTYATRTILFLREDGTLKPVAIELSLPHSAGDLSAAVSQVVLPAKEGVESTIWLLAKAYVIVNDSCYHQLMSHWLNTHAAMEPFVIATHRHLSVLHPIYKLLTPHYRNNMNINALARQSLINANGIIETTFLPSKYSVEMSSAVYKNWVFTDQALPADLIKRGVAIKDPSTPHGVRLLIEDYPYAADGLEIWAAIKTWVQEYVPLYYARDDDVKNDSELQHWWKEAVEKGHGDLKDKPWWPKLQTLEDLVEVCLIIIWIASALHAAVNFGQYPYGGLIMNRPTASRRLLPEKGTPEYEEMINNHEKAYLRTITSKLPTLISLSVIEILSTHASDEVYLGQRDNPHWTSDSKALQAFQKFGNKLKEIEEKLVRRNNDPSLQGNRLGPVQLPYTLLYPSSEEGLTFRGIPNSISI
In words: Kinetics of oxygenation of linoleic acid, soybean lysoPC or linoleoyl-lysoPC by soybean LOX-1 (absorbance at 234 nm). Format: biochemical. As to conditions: for Km: 50 mM borax buffer pH 9.0, 25° C., Lineweaver Burke plot; for Vm: soybean LOX-1, 50 mM borax buffer pH 9.0, 25° C., unit = one micromole conjugated diene per min. As for the experimental part: Lipoxygenase-1 (LOX-1) activity was monitored at 25° C. by measuring the increase in absorbance at 234 nm due to the formation of hydroperoxide (ε234=25,000 M^−1 cm^−1) as previously reported (Axelrod et al, Methods Enzymol. 71 (1981) 441-451; Egmond et al, Eur. J. Biochem. 61 (1976) 93-100). […] One unit is defined as the amount of LOX-1 that can produce one micromole of conjugated diene per min.
LOX-1 was purified from soy bean lipoxidase preparation (Type I-B) according to the method of Finazzi Agro et al (Finazzi-Agro et al, Biochim. Biophys. Acta 326 (1973) 462-470). Briefly, soybean LOX-1 (100 mg) was dissolved in 0.1 M phosphate buffer (pH 6.8), and applied to DEAE Sephacel (1.5×25 cm). […] Protein amount was determined according to Lowry method (O. H. Lowry, N. J. Rosenbrough, A. L. Farr, R. J. Randall, J. Biol. Chem. 193 (1951) 265-275).
Next, the effect of linoleoyl-lysoPC concentration on LOX-1-catalyzed oxygenation of linoleoyl-lysoPC was examined.

The next experiment deals with T3, Porcine leukocyte LOX (Sus scrofa, UniProt P16469).
T3 construct: purchased Cayman Chemical Co. (Ann Arbor, Mich., USA)
T3 sequence (P16469 1-663): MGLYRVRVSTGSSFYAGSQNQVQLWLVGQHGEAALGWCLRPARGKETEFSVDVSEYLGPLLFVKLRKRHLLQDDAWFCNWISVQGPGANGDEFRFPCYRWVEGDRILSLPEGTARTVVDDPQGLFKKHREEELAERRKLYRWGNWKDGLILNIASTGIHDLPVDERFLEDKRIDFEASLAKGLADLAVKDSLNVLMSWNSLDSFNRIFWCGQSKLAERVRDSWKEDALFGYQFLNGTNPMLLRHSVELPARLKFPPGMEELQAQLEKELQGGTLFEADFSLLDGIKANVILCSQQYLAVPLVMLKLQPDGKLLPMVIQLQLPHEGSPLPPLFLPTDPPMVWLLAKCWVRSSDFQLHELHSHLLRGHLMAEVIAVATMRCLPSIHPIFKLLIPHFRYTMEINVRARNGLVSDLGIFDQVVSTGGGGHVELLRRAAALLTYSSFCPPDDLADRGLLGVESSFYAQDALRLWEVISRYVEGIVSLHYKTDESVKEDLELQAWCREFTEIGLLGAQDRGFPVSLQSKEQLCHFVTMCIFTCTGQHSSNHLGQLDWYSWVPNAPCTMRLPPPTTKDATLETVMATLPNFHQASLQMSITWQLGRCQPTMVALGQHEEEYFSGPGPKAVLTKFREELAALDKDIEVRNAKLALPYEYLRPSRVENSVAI
The experiment is described as follows: Kinetics of oxygenation of linoleoylated substrates by leukocyte LOX. Format: biochemical. As to conditions: porcine leukocyte LOX 1.5 units/ml, 100 mM phosphate buffer pH 7.5, 5 mM EDTA; for Vm: 0.03% Tween 20; for Km: substrate 3-100 μM, 0.03% Tween 20, 25° C.
From the text: as §1

We go through two compounds from patent publication US20070264679A1, “Method for analyzing the activity of lipoxygenase using a water-soluble substrate” (Chungnam National University Industry Collaboration …, priority 2006, published 2007).

The structures appear in SMILES notation.

Usually Km stands for the concentration of substrate that gives half-maximal velocity. On to `CCCCC/C=C\C/C=C\CCCCCCCC(=O)O` [Linoleic acid, linoleic acid], for which the Vm is listed as 545 ± 5 units/mg on Reticulocyte LOX, 114.3 ± 6.0 units/mg in experiment [1] and 32.7 ± 1.93 units/mg at Porcine leukocyte LOX. The Km at Reticulocyte LOX amounted to 12.1 ± 0.8 µM; in experiment [1], 12 ± 0.7 µM; at Porcine leukocyte LOX, 31.2 ± 4.6 µM.
As to `CCCCC/C=C\C/C=C\CCCCCCCC(=O)OCC(O)COP(=O)([O-])OCC[N+](C)(C)C` (stereo not shown) [Linoleoyl-lysoPC, 1-linoleoyl Lysophosphatidylcholine], the Vm at Reticulocyte LOX is reported as 1622 ± 19 units/mg; in experiment [1], 167.5 ± 10.4 units/mg; in experiment [1] (listed as linoleoyl-lysoPC), 167.5 units/mg; on Porcine leukocyte LOX, 14.42 ± 0.78 units/mg. Besides, the Km on Reticulocyte LOX was 17.5 ± 0.9 µM; in experiment [1], 12.9 µM; on Porcine leukocyte LOX, 15.1 ± 1.34 µM.
